Measured values taken from PMC12300041, “Tricyclic Isatin Derivatives as Anti-Inflammatory Compounds with High Kinase Binding Affinity” (Molecules, 2025).

Legend:
Test in all cases: KINOMEscan
Format in all cases: binding
PDGFRB = molecular target: T1, PDGFRB (Homo sapiens, UniProt P09619)
T1 construct: purchased Eurofins DiscoverX KINOMEscan
How it was run: (§1)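 Binding reactions proceed for 1 h at room temperature. Kinase not bound by compound is captured on immobilized affinity ligand and quantified by qPCR; Kd is fitted over 12 half-log concentrations, top 33 μM.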

PIK3CA (E545K) = molecular target: T2, PIK3CA (E545K) (Homo sapiens, UniProt P42336, E545K)
T2 construct: purchased Eurofins DiscoverX KINOMEscan
T2 sequence (P42336 whole entry E545K): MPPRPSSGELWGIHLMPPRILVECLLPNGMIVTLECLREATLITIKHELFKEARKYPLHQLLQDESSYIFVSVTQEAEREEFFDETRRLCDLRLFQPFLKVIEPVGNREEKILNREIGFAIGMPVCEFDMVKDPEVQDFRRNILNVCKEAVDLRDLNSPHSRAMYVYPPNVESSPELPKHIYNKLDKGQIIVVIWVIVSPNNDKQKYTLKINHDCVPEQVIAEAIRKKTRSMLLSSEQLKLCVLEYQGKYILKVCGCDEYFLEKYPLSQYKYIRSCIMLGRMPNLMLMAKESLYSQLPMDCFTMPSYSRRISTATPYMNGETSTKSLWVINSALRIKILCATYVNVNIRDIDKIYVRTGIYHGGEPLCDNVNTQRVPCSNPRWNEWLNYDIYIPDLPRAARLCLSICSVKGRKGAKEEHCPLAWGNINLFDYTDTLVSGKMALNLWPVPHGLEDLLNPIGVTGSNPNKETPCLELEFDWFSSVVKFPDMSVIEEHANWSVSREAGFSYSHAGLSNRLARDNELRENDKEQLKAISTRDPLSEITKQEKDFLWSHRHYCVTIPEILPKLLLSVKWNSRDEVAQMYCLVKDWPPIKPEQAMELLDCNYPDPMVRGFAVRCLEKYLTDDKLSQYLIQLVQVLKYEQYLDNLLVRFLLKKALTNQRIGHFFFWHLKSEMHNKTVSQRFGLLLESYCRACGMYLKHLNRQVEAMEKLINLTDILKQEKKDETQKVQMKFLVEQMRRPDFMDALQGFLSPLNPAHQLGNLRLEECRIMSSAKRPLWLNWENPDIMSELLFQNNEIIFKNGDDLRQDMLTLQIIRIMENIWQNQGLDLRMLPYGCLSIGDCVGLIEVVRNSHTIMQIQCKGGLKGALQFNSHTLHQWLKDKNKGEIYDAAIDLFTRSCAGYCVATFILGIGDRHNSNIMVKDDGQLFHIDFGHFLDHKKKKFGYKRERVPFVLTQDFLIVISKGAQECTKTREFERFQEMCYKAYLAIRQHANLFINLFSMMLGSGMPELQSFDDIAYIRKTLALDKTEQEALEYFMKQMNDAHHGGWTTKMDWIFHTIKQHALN
How it was run: as §1

PHKG1 = molecular target: T3, PHKG1 (Homo sapiens, UniProt Q16816)
T3 construct: purchased Eurofins DiscoverX KINOMEscan
How it was run: as §1

PIK3CB = molecular target: T4, PIK3CB (Homo sapiens, UniProt P42338)
T4 construct: purchased Eurofins DiscoverX KINOMEscan
How it was run: as §1

KIT (V559D) = molecular target: T5, KIT (V559D) (Homo sapiens, UniProt P10721, V559D)
T5 construct: purchased Eurofins DiscoverX KINOMEscan
T5 sequence (P10721 26-976 V559D): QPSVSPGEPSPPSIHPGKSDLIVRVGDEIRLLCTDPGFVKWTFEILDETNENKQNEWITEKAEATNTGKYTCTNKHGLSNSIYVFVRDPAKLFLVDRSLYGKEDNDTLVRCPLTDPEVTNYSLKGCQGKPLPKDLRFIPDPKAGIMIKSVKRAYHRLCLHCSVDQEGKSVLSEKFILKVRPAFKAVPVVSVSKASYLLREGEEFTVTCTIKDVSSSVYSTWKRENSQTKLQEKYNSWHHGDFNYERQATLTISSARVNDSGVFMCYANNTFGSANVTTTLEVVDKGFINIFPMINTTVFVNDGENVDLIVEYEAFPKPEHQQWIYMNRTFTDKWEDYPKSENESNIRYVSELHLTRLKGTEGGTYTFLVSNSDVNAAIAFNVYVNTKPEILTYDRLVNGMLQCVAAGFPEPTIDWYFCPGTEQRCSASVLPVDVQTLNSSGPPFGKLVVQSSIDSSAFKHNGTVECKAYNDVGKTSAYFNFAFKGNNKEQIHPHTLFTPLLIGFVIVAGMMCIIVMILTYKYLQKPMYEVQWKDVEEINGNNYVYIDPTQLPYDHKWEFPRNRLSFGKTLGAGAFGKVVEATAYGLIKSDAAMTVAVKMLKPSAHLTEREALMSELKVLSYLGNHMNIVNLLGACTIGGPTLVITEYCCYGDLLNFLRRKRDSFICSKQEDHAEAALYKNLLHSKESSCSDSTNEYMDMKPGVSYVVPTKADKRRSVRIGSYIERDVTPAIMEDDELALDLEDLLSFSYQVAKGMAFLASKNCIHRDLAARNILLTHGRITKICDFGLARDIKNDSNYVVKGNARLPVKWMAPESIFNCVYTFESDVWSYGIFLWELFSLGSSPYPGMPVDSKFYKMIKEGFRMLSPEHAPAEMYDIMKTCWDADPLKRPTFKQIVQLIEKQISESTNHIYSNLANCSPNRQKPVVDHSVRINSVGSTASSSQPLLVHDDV
How it was run: as §1

MEK3 = molecular target: T6, MEK3 (Homo sapiens, UniProt P46734)
T6 construct: purchased Eurofins DiscoverX KINOMEscan
How it was run: as §1

CLK1 = molecular target: T7, CLK1 (Homo sapiens, UniProt P49759)
T7 construct: purchased Eurofins DiscoverX KINOMEscan
T7 sequence (P49759 whole entry): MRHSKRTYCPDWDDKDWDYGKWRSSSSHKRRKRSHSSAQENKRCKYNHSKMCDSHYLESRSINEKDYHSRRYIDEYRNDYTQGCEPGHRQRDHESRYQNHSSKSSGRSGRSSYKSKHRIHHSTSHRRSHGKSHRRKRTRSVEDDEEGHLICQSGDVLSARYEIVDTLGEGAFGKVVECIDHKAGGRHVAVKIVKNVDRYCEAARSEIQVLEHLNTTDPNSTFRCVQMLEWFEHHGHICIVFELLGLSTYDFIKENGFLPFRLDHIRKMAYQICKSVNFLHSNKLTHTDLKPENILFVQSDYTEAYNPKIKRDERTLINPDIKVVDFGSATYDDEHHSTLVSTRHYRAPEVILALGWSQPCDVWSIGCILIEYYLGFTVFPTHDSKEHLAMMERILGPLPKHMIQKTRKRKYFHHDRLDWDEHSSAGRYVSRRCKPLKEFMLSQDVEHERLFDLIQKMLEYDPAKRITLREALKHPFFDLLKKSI
How it was run: as §1

NEK5 = molecular target: T8, NEK5 (Homo sapiens, UniProt Q6P3R8)
T8 construct: purchased Eurofins DiscoverX KINOMEscan
How it was run: as §1

ABL1-non-P = molecular target: T9, ABL1-non-P (Homo sapiens, UniProt P00519)
T9 construct: purchased Eurofins DiscoverX KINOMEscan
How it was run: as §1

MYLK = molecular target: T10, MYLK (Homo sapiens, UniProt Q15746)
T10 construct: purchased Eurofins DiscoverX KINOMEscan
How it was run: as §1

[1] = molecular target: T11, RSK1 (Kin. Dom.1-N-term.) (Homo sapiens, UniProt Q15418)
T11 construct: RSK1 (Kin. Dom.1-N-term.); purchased Eurofins DiscoverX KINOMEscan
T11 sequence (Q15418 1-391 limits assumed): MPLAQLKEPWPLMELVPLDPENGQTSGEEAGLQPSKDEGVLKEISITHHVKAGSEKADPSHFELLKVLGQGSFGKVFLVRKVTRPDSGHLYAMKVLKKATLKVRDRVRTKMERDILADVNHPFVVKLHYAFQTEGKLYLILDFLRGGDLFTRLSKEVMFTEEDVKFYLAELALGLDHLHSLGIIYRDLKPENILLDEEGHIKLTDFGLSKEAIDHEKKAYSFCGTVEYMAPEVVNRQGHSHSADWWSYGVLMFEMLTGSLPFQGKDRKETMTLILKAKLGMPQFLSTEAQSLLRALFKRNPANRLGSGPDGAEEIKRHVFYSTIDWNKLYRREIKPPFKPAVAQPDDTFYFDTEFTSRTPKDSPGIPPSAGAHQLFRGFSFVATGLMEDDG
How it was run: as §1

RIPK5 = molecular target: T12, RIPK5 (Homo sapiens, UniProt Q6XUX3)
T12 construct: purchased Eurofins DiscoverX KINOMEscan
How it was run: as §1

BRAF (V600E) = molecular target: T13, BRAF (V600E) (Homo sapiens, UniProt P15056, V600E)
T13 construct: purchased Eurofins DiscoverX KINOMEscan
T13 sequence (P15056 whole entry V600E): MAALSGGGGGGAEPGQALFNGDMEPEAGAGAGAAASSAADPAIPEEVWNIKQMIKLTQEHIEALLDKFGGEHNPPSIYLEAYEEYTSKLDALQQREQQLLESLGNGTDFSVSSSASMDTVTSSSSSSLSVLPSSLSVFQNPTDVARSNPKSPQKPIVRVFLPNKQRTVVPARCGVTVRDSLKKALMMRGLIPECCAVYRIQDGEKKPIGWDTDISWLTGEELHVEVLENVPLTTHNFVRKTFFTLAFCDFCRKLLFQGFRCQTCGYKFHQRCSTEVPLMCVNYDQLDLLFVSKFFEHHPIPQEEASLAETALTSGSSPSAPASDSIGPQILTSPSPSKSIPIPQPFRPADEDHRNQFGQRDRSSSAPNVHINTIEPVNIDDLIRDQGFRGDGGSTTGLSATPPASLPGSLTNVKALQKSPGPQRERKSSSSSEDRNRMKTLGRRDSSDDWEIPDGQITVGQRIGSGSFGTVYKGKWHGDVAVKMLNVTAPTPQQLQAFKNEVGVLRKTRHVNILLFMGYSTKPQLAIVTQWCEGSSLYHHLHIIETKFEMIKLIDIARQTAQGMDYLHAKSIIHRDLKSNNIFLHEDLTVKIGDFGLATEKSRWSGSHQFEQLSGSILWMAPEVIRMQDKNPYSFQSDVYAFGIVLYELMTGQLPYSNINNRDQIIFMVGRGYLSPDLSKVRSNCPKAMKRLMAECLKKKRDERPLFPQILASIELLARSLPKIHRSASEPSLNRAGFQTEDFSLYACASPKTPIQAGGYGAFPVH
How it was run: as §1

ABL1-P = molecular target: T14, ABL1-P (Homo sapiens, UniProt P00519)
T14 construct: purchased Eurofins DiscoverX KINOMEscan
How it was run: as §1

CDK4-cyclinD1 = molecular target: T15, CDK4-cyclinD1 (Homo sapiens, UniProt P11802)
T15 construct: purchased Eurofins DiscoverX KINOMEscan
How it was run: as §1

MERTK = molecular target: T16, MERTK (Homo sapiens, UniProt Q12866)
T16 construct: purchased Eurofins DiscoverX KINOMEscan
How it was run: as §1

ULK3 = molecular target: T17, ULK3 (Homo sapiens, UniProt Q6PHR2)
T17 construct: purchased Eurofins DiscoverX KINOMEscan
How it was run: as §1

[2] = molecular target: T18, RPS6KA5 (Kin. Dom.1-N-term.) (Homo sapiens, UniProt O75582)
T18 construct: RPS6KA5 (Kin. Dom.1-N-term.); purchased Eurofins DiscoverX KINOMEscan
How it was run: as §1

MST3 = molecular target: T19, MST3 (Homo sapiens, UniProt Q9Y6E0)
T19 construct: purchased Eurofins DiscoverX KINOMEscan
How it was run: as §1

CAMK2D = molecular target: T20, CAMK2D (Homo sapiens, UniProt Q13557)
T20 construct: purchased Eurofins DiscoverX KINOMEscan
How it was run: as §1

FES = molecular target: T21, FES (Homo sapiens, UniProt P07332)
T21 construct: purchased Eurofins DiscoverX KINOMEscan
How it was run: as §1

CHEK1 = molecular target: T22, CHEK1 (Homo sapiens, UniProt O14757)
T22 construct: purchased Eurofins DiscoverX KINOMEscan
How it was run: as §1

MAP4K2 = molecular target: T23, MAP4K2 (Homo sapiens, UniProt Q12851)
T23 construct: purchased Eurofins DiscoverX KINOMEscan
How it was run: as §1

MARK2 = molecular target: T24, MARK2 (Homo sapiens, UniProt Q7KZI7)
T24 construct: purchased Eurofins DiscoverX KINOMEscan
How it was run: as §1

CDK11 = molecular target: T25, CDK11 (Homo sapiens, UniProt Q9BWU1)
T25 construct: purchased Eurofins DiscoverX KINOMEscan
How it was run: as §1

MARK4 = molecular target: T26, MARK4 (Homo sapiens, UniProt Q96L34)
T26 construct: purchased Eurofins DiscoverX KINOMEscan
How it was run: as §1

PHKG2 = molecular target: T27, PHKG2 (Homo sapiens, UniProt P15735)
T27 construct: purchased Eurofins DiscoverX KINOMEscan
How it was run: as §1

HCK = molecular target: T28, HCK (Homo sapiens, UniProt P08631)
T28 construct: purchased Eurofins DiscoverX KINOMEscan
How it was run: as §1

PRKG2 = molecular target: T29, PRKG2 (Homo sapiens, UniProt Q13237)
T29 construct: purchased Eurofins DiscoverX KINOMEscan
How it was run: as §1

STK39 = molecular target: T30, STK39 (Homo sapiens, UniProt Q9UEW8)
T30 construct: purchased Eurofins DiscoverX KINOMEscan
How it was run: as §1

GSK3A = molecular target: T31, GSK3A (Homo sapiens, UniProt P49840)
T31 construct: purchased Eurofins DiscoverX KINOMEscan
How it was run: as §1

RIPK1 = molecular target: T32, RIPK1 (Homo sapiens, UniProt Q13546)
T32 construct: purchased Eurofins DiscoverX KINOMEscan
How it was run: as §1

[3] = molecular target: T33, RSK2 (Kin. Dom.1-N-term.) (Homo sapiens, UniProt P51812)
T33 construct: RSK2 (Kin. Dom.1-N-term.); purchased Eurofins DiscoverX KINOMEscan
How it was run: as §1

p38-β = molecular target: T34, p38-β (Homo sapiens, UniProt Q15759)
T34 construct: purchased Eurofins DiscoverX KINOMEscan
T34 sequence (Q15759 whole entry): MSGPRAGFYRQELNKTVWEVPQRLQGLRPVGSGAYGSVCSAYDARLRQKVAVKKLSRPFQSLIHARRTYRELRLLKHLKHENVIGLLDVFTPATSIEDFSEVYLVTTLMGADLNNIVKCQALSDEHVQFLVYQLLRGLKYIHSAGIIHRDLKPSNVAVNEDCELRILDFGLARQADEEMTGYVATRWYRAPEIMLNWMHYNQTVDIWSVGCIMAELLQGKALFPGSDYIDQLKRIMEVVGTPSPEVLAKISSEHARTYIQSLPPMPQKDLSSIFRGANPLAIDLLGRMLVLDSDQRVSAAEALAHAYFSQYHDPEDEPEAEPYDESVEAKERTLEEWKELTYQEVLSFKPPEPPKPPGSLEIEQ
How it was run: as §1

EPHA8 = molecular target: T35, EPHA8 (Homo sapiens, UniProt P29322)
T35 construct: purchased Eurofins DiscoverX KINOMEscan
T35 sequence (P29322 28-1005): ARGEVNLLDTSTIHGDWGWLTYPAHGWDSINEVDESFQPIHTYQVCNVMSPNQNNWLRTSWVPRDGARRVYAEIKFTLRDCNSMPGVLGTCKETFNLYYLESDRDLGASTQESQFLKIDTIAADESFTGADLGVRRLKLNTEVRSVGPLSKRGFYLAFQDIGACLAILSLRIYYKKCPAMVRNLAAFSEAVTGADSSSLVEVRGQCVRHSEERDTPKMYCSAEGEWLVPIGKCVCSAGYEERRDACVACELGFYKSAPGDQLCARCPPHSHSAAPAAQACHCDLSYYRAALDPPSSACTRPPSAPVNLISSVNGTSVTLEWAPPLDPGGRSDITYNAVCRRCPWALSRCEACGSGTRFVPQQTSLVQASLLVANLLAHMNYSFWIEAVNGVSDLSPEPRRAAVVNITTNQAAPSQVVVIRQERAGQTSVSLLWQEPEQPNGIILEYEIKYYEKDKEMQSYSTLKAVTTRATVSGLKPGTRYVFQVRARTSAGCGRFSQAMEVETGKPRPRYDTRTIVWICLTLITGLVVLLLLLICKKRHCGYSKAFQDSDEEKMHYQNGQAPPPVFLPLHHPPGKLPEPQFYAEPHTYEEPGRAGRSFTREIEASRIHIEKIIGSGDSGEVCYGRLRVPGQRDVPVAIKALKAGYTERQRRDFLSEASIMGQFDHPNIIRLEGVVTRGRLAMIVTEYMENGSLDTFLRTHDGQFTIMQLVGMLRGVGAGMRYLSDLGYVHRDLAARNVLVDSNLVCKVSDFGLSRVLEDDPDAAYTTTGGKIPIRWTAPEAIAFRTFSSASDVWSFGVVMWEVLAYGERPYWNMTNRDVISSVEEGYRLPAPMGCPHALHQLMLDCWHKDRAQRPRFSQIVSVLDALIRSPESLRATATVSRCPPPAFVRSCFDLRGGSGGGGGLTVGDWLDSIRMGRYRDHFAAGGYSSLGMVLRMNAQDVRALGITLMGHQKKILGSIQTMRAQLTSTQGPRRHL
How it was run: as §1

MYLK2 = molecular target: T36, MYLK2 (Homo sapiens, UniProt Q9H1R3)
T36 construct: purchased Eurofins DiscoverX KINOMEscan
How it was run: as §1

ACVR2B = molecular target: T37, ACVR2B (Homo sapiens, UniProt Q13705)
T37 construct: purchased Eurofins DiscoverX KINOMEscan
How it was run: as §1

PIK3CA (C420R) = molecular target: T38, PIK3CA (C420R) (Homo sapiens, UniProt P42336, C420R)
T38 construct: purchased Eurofins DiscoverX KINOMEscan
T38 sequence (P42336 whole entry C420R): as the sequence (P42336 whole entry E545K) above, with C420R, K545E counted along it
How it was run: as §1

Work on O=C1Nc2c(cc([N+](=O)[O-])c3c2CCCC3)C1=NO [Compound 5d, 3-(Hydroxyimino)-5-nitro-1,3,6,7,8,9-hexahydro-2H-benzo[g]indol-2-one] yielded an inhibition at 10 µM (PDGFRB) of 0%, an inhibition at 10 µM (PIK3CA (E545K)) of 0% and an inhibition at 10 µM (PHKG1) of 0%. The inhibition at 10 µM (PIK3CB) was 0%, the inhibition at 10 µM (KIT (V559D)) was 0% and the inhibition at 10 µM (MEK3) was 94%. It also gave an inhibition at 10 µM (CLK1) of 85%, an inhibition at 10 µM (NEK5) of 7% and an inhibition at 10 µM (ABL1-non-P) of 54%. It also gave an inhibition at 10 µM (MYLK) of 93.9%, an inhibition at 10 µM [1] of 0% and an inhibition at 10 µM (RIPK5) of 17%. The inhibition at 10 µM (BRAF (V600E)) was 23%, the inhibition at 10 µM (ABL1-P) was 46% and the inhibition at 10 µM (CDK4-cyclinD1) was 9%. It also gave an inhibition at 10 µM (MERTK) of 4%, an inhibition at 10 µM (ULK3) of 55% and an inhibition at 10 µM [2] of 4%. The inhibition at 10 µM (MST3) was 62%, the inhibition at 10 µM (CAMK2D) was 51% and the inhibition at 10 µM (FES) was 0%. For the same compound, the inhibition at 10 µM (CHEK1) was 2%, the inhibition at 10 µM (MAP4K2) was 53% and the inhibition at 10 µM (MARK2) was 36%. It also gave an inhibition at 10 µM (CDK11) of 1%, an inhibition at 10 µM (MARK4) of 20% and an inhibition at 10 µM (PHKG2) of 45%. It also gave an inhibition at 10 µM (HCK) of 20%, an inhibition at 10 µM (PRKG2) of 6% and an inhibition at 10 µM (STK39) of 53%. For the same compound, the inhibition at 10 µM (GSK3A) was 57%, the inhibition at 10 µM (RIPK1) was 0% and the inhibition at 10 µM [3] was 81%. For the same compound, the inhibition at 10 µM (p38-β) was 15%, the inhibition at 10 µM (EPHA8) was 0% and the inhibition at 10 µM (MYLK2) was 30%. The inhibition at 10 µM (ACVR2B) was 25% and the inhibition at 10 µM (PIK3CA (C420R)) was 0%.
